Measured values taken from BindingDB's records for doi:10.1016/0968-0896(96)00130-7 (Sankyo, 1996).

molecular target: T1, Dimer of Gag-Pol polyprotein [489-587] (Human immunodeficiency virus 1, UniProt P12497); assay: Protease Inhibition Assay; conditions: pH 4.7; 37 °C
T1 construct: 489-587
Protocol: The inhibitory activities of the compounds toward HIV-1 PR were determined by sodium dodecyl sulfate-polyacrylamide gel electrophoresis (SDS-PAGE) assay. The Ki values of active compounds were determined using the partially purified protease and the synthetic substrate Ac-Ser-Gln-AsnTyr-Pro-Ile-Val-NH2.

Cn1cc(C(=O)N[C@@H](CC(N)=O)C(=O)N[C@@H](Cc2ccccc2)[C@H](O)C(=O)N2C[C@@H](Cl)C[C@H]2C(=O)NC(C)(C)C)c2ccccc21 [(1-Methylindole-3-carbonyl)- Asn - (2S,3S)-AHPBA-[4(S)-chloro]Pro tert-butylamide] and Cn1nc(C(=O)N[C@@H](CC(N)=O)C(=O)N[C@@H](Cc2ccccc2)[C@H](O)C(=O)N2C[C@@H](Cl)C[C@H]2C(=O)NC(C)(C)C)c2ccccc21 [(2S)-N-[(2S,3S)-4-[(2S,4S)-2-(tert-butylcarbamoyl)-4-chloropyrrolidin-1-yl]-3-hydroxy-4-oxo-1-phenylbutan-2-yl]-2-[(1-methyl-1H-indazol-3-yl)formamido]butanediamide] are within 1.5-fold of each other in Ki: 20 nM for the first, 16 nM for the second.

Going from CC(C)(C)NC(=O)[C@@H]1C[C@H](Cl)CN1C(=O)[C@@H](O)[C@H](Cc1ccccc1)NC(=O)[C@H](CC(N)=O)NC(=O)c1noc2ccccc12 [(2S)-2-(1,2-benzoxazol-3-ylformamido)-N-[(2S,3S)-4-[(2S,4S)-2-(tert-butylcarbamoyl)-4-chloropyrrolidin-1-yl]-3-hydroxy-4-oxo-1-phenylbutan-2-yl]butanediamide] to CC(C)(C)NC(=O)[C@@H]1C[C@H](Cl)CN1C(=O)[C@@H](O)[C@H](Cc1ccccc1)NC(=O)[C@H](CC(N)=O)NC(=O)c1cnc2ccccc2n1 [(Quinoxaline-2-carbonyl)-Asn-(2S,3S)-AHPBA-[4(S)-chloro]Pro tert-butylamide], the Ki falls from 28 nM to 4.7 nM (6-fold). The second binds more tightly here.

Going from CC(C)(C)NC(=O)[C@@H]1C[C@H](Cl)CN1C(=O)[C@@H](O)[C@H](Cc1ccccc1)NC(=O)[C@H](CC(N)=O)NC(=O)c1cc2cc(F)ccc2[nH]1 [(2S)-N-[(2S,3S)-4-[(2S,4S)-2-(tert-butylcarbamoyl)-4-chloropyrrolidin-1-yl]-3-hydroxy-4-oxo-1-phenylbutan-2-yl]-2-[(5-fluoro-1H-indol-2-yl)formamido]butanediamide] to COc1ccc2[nH]c(C(=O)N[C@@H](CC(N)=O)C(=O)N[C@@H](Cc3ccccc3)[C@H](O)C(=O)N3C[C@@H](Cl)C[C@H]3C(=O)NC(C)(C)C)cc2c1 [(2S)-N-[(2S,3S)-4-[(2S,4S)-2-(tert-butylcarbamoyl)-4-chloropyrrolidin-1-yl]-3-hydroxy-4-oxo-1-phenylbutan-2-yl]-2-[(5-methoxy-1H-indol-2-yl)formamido]butanediamide], the Ki rises from 12.5 nM to 21.5 nM (1.7-fold). The first binds more tightly here.

Going from COc1cccc2cc(C(=O)N[C@@H](CC(N)=O)C(=O)N[C@@H](Cc3ccccc3)[C@H](O)C(=O)N3C[C@@H](Cl)C[C@H]3C(=O)NC(C)(C)C)oc12 [(2S)-N-[(2S,3S)-4-[(2S,4S)-2-(tert-butylcarbamoyl)-4-chloropyrrolidin-1-yl]-3-hydroxy-4-oxo-1-phenylbutan-2-yl]-2-[(7-methoxy-1-benzofuran-2-yl)formamido]butanediamide] to CC(C)(C)NC(=O)[C@@H]1C[C@@H](Cl)CN1C(=O)[C@@H](O)[C@H](Cc1ccccc1)NC(=O)[C@H](CC(N)=O)NC(=O)OCc1ccccc1 [Z-Asn-(2S,3S).AHPBA. [4(R ).chloro] Pro tert-butylamide], the Ki rises from 4.5 nM to 90 nM (20-fold). The first binds more tightly here.

Going from CC(C)(C)NC(=O)[C@@H]1CC(F)CN1C(=O)[C@@H](O)[C@H](Cc1ccccc1)NC(=O)[C@H](CC(N)=O)NC(=O)OCc1ccccc1 (stereo partly drawn) [Z-Asn-(2S,3S)-AHPBA-[4(S)-fluoro] Pro tert-butylamide] to CC(C)(C)NC(=O)[C@@H]1CC(Cl)CN1C(=O)[C@@H](O)[C@H](Cc1ccccc1)NC(=O)[C@H](CC(N)=O)NC(=O)OCc1ccccc1 (stereo partly drawn) [benzyl N-[(1S)-1-{[(2S,3S)-4-[(2S)-2-(tert-butylcarbamoyl)-4-chloropyrrolidin-1-yl]-3-hydroxy-4-oxo-1-phenylbutan-2-yl]carbamoyl}-2-carbamoylethyl]carbamate], the Ki falls from 18 nM to 8 nM (2.2-fold).

Compared with CC(C)(C)NC(=O)[C@@H]1CC(Br)CN1C(=O)[C@@H](O)[C@H](Cc1ccccc1)NC(=O)[C@H](CC(N)=O)NC(=O)OCc1ccccc1 (stereo partly drawn) [Z-Asn-(2S,3S)-AHPBA.[4(S)-bromo]Pro tert-butylamide], CC(C)(C)NC(=O)[C@@H]1CC(O)CN1C(=O)[C@@H](O)[C@H](Cc1ccccc1)NC(=O)[C@H](CC(N)=O)NC(=O)OCc1ccccc1 (stereo partly drawn) [Z.Asn-(2S,3S)-AHPBA-[4(S)-hydroxy]Pro tert-butylamide] is 22-fold lower in Ki: 22.5 nM for the first, 1 nM for the second.

First: CC(C)(C)NC(=O)[C@@H]1CC(=O)CN1C(=O)[C@@H](O)[C@H](Cc1ccccc1)NC(=O)[C@H](CC(N)=O)NC(=O)OCc1ccccc1 [Z-Asn.(2S,3S)-AHPBA.(4.oxo)Pro tert-butylamide]
Second: CC(C)(C)NC(=O)[C@@H]1CCCN1C(=O)[C@@H](O)[C@H](Cc1ccccc1)NC(=O)[C@H](CC(N)=O)NC(=O)OCc1ccccc1 [benzyl N-[(1S)-1-{[(2S,3S)-4-[(2S)-2-(tert-butylcarbamoyl)pyrrolidin-1-yl]-3-hydroxy-4-oxo-1-phenylbutan-2-yl]carbamoyl}-2-carbamoylethyl]carbamate]
The Ki of the first is 4.6-fold lower: 12.5 nM for the first, 57.5 nM for the second. The first binds more tightly here.

First: CC(C)(C)NC(=O)[C@@H]1[C@@H](Cl)CCN1C(=O)[C@@H](O)[C@H](Cc1ccccc1)NC(=O)[C@H](CC(N)=O)NC(=O)OCc1ccccc1 [Z-Asn.(2S,3S)-AHPBA.[3(S)-chloro]Pro tert-butylamide]
Second: CC(C)(C)NC(=O)[C@@H]1[C@@H](O)CCN1C(=O)[C@@H](O)[C@H](Cc1ccccc1)NC(=O)[C@H](CC(N)=O)NC(=O)OCc1ccccc1 [Z.Asn-(2S,3S).AHPBA.[3(S)-hydroxy]Pro tert-butyl-amide]
The Ki of the first is 2.2-fold lower: 14.5 nM for the first, 32 nM for the second.

First: CC(C)(C)NC(=O)[C@@H]1CC(Sc2ccccc2)CN1C(=O)[C@@H](O)[C@H](Cc1ccccc1)NC(=O)[C@H](CC(N)=O)NC(=O)OCc1ccccc1 (stereo partly drawn) [Z.Asn-(2S,3S)-AHPBA-[4(S)-phenylthio]Pro tert-butylamide]
Second: CC(C)(C)NC(=O)[C@@H]1C[C@@H](O)CN1C(=O)[C@@H](O)[C@H](Cc1ccccc1)NC(=O)[C@H](CC(N)=O)NC(=O)OCc1ccccc1 [benzyl N-[(1S)-1-{[(2S,3S)-4-[(2S,4R)-2-(tert-butylcarbamoyl)-4-hydroxypyrrolidin-1-yl]-3-hydroxy-4-oxo-1-phenylbutan-2-yl]carbamoyl}-2-carbamoylethyl]carbamate]
The Ki of the first is 2.2-fold higher: 125 nM for the first, 56 nM for the second. The second binds more tightly here.

First: CC(C)(C)NC(=O)[C@@H]1C(O)CCN1C(=O)[C@@H](O)[C@H](Cc1ccccc1)NC(=O)[C@H](CC(N)=O)NC(=O)OCc1ccccc1 (stereo partly drawn) [benzyl N-[(1S)-1-{[(2S,3S)-4-[(2S)-2-(tert-butylcarbamoyl)-3-hydroxypyrrolidin-1-yl]-3-hydroxy-4-oxo-1-phenylbutan-2-yl]carbamoyl}-2-carbamoylethyl]carbamate]
Second: CC(C)(C)NC(=O)[C@@H]1CC(F)(F)CN1C(=O)[C@@H](O)[C@H](Cc1ccccc1)NC(=O)[C@H](CC(N)=O)NC(=O)OCc1ccccc1 [benzyl N-[(1S)-1-{[(2S,3S)-4-[(2S)-2-(tert-butylcarbamoyl)-4,4-difluoropyrrolidin-1-yl]-3-hydroxy-4-oxo-1-phenylbutan-2-yl]carbamoyl}-2-carbamoylethyl]carbamate]
The Ki of the first is 350-fold lower: 0.1 nM for the first, 35 nM for the second.

Compared with COC1(OC)C[C@@H](C(=O)NC(C)(C)C)N(C(=O)[C@@H](O)[C@H](Cc2ccccc2)NC(=O)[C@H](CC(N)=O)NC(=O)OCc2ccccc2)C1 [benzyl N-[(1S)-1-{[(2S,3S)-4-[(2S)-2-(tert-butylcarbamoyl)-4,4-dimethoxypyrrolidin-1-yl]-3-hydroxy-4-oxo-1-phenylbutan-2-yl]carbamoyl}-2-carbamoylethyl]carbamate], CC(C)(C)NC(=O)[C@@H]1CC(N2CCOCC2)CN1C(=O)[C@@H](O)[C@H](Cc1ccccc1)NC(=O)[C@H](CC(N)=O)NC(=O)OCc1ccccc1 (stereo partly drawn) [benzyl N-[(1S)-1-{[(2S,3S)-4-[(2S)-2-(tert-butylcarbamoyl)-4-(morpholin-4-yl)pyrrolidin-1-yl]-3-hydroxy-4-oxo-1-phenylbutan-2-yl]carbamoyl}-2-carbamoylethyl]carbamate] is 92-fold lower in Ki: 92 nM for the first, 1 nM for the second. The second binds more tightly here.
